Assay results published in patent US10017713B2, “Fluorinated surfactant containing compositions” (3M INNOVATIVE PROPERTIES COMPANY, priority 2014, dated 2018).

Columns and labels:
[1] = Surfactant solubility in hydrofluoroether (HFE) solvents by visual clarity; assay type: physicochemical
Experimental: A series of C4F9SO2N-based fluorochemical surfactants were examined to determine their solubility in various hydrofluoro ether (HFE) solvents, including four segregated HFEs (Novec 7100, 7200, 7300, and 7500 available from 3M Company, St Paul, Minn.), one non-segregated HFE (PF-7600 available from 3M Company), and one HFE-Alcohol blend (Novec 71IPA available from 3M Company). Solubility was determined by preparing mixtures of each surfactant in the solvent at various concentrations and determining solubility at each concentration by visual inspection based on the clarity of the solutions after thorough mixing at room temperature. Surfactants that were not completely soluble at a given concentration produced hazy mixtures, whereas surfactants that were completely soluble at a given concentration produced clear homogeneous solutions with no haze. The highest concentration of each surfactant to give a clear, homogeneous solution in each HFE solvent (expressed as wt % surfactant dissolved in HFE solvent) was taken as the maximum solubility.

[2] = Cleaning performance: % particle removal from heavily soiled CMOS sensors
Experimental: A study was conducted using Novec 7100 and Novec 71IPA base solvents with and without the soluble surfactants identified above to determine the impact of dissolved surfactant on cleaning performance of the fluids. In some cases a single surfactant was employed. In other cases a mixture of two surfactants was employed. In all cases the total concentration of fluorochemical surfactant employed was 0.20 wt % (or 2000 ppm) in the base fluid. Cleaning results were compared to pure Novec fluid controls containing no surfactant. The cleaning trials were performed on heavily soiled CMOS sensors containing a high pixel density. These sensors are known to be extremely difficult to clean such that they are essentially free of (particle contaminants.
A precision solvent cleaning system (SK-04Y-6008 customized cleaning system from YMPT, Thailand) was used to clean the CMOS sensors using the process outlined below.
The cleaning performance of each cleaning fluid composition was judged based on the percentage of particles originally present on the CMOS surface that were removed by the cleaning fluid after completion of the cleaning process. The percentage of particles removed was determined by optical microscopy inspection of the CMOS sensors before and after cleaning.
The original (heavily soiled) CMOS sensor was first inspected using an optical microscope and a series of Pre-Clean images were recorded. The CMOS sensor was then cleaned in the precision cleaning system using the process described above and the proscribed solvent/surfactant combination. After cleaning, the CMOS sensor was inspected again by optical microscopy and a Post-Clean image recorded to determine particle counts remaining on the sensor. In this way, the % removal of particles after cleaning of CMOS sensors was determined.

[3] = Novec 71IPA, room temperature (23° C.)
[4] = Novec 7100, room temperature (23° C.)
[5] = Novec 7200, room temperature (23° C.)
[6] = Novec 7300, room temperature (23° C.)
[7] = PF-7600, room temperature (23° C.)
[8] = Novec 71IPA, total surfactant 0.20 wt %
[9] = Novec 7500, room temperature (23° C.)

Row | Compound | Max. Solubility [1, 3] | Max. Solubility [1, 4] | Max. Solubility [1, 5] | Max. Solubility [1, 6] | Max. Solubility [1, 7] | % Removal (Percent Particle Removal) [2, 8] | Max. Solubility [1, 9] | % Removal (Percent Particle Removal) ([2]; Novec 7100, surfactant 0.2 %) | solubility in HFE solvents ([1]; room temperature) | melting point
1 | O=S(=O)(NCCO)C(F)(F)C(F)(F)C(F)(F)C(F)(F)F [H-FBSE (X), C4F9SO2NH(CH2CH2OH)] | >10 wt % | 0.21 wt % | 0.16 wt % | 0.06 wt % | 1.5 wt % | 50-80% | – | – | – | –
2 | C4F9SO2N(CH3)(CH2CH2O)7CH3 [FC-4171 (XI), reference compound] | >10 wt % | >10 wt % | >10 wt % | 0.5 wt % | >10 wt % | 50-80% | 0.1 wt % | 50-80% | – | –
3 | CC(O)CN(CCO)S(=O)(=O)C(F)(F)C(F)(F)C(F)(F)C(F)(F)F (stereo not drawn) [FBSEP (VIII), C4F9SO2N(CH2CH2OH)CH2CH(CH3)OH] | >10 wt % | 4.0 wt % | – | 1.4 wt % | >10 wt % | – | – | – | improved solubility | –
4 | O=S(=O)(N(CCO)CCO)C(F)(F)C(F)(F)C(F)(F)C(F)(F)F [FBSEE (IX), C4F9SO2N(CH2CH2OH)2] | 8.1 wt % | 0.06 wt % | 0.04 wt % | 0.03 wt % | 0.6 wt % | 90-100% | – | – | – | –
5 | O=S(=O)(NCCOCCO)C(F)(F)C(F)(F)C(F)(F)C(F)(F)F [H-FBS(EE) (III), C4F9SO2N(H)CH2CH2OCH2CH2OH] | >10 wt % | >10 wt % | >10 wt % | >10 wt % | >10 wt % | 50-80% | >10 wt % | 50-80% | – | 35.7 °C
6 | O=S(=O)(N(CCO)CCOCCO)C(F)(F)C(F)(F)C(F)(F)C(F)(F)F [FBSE(EE) (V), C4F9SO2N(CH2CH2OCH2CH2OH) (CH2CH2OH)] | >10 wt % | 1.5 wt % | 0.8 wt % | 0.9 wt % | >10 wt % | 90-100% | 0.2 wt % | 90-100% | – | 45.1 °C
7 | O=S(=O)(N(CCOCCO)CCOCCO)C(F)(F)C(F)(F)C(F)(F)C(F)(F)F [FBS(EE)2 (IV), C4F9SO2N(CH2CH2OCH2CH2OH)2] | >10 wt % | >10 wt % | 0.2-0.5 wt % | 0.2-0.3 wt % | 8-9 wt % | 50-80% | 0.2 wt % | 50-80% | – | –
